Test: Handling and storage stability of crystalline Form-SP9
Type: physicochemical
Details: handling and storage for longer time; solid state
Text: Crystalline Form-SP9 retains its stoichiometry even on exposure to uncontrolled environmental conditions. This stable form thus, offers various advantages in terms of storage, shelf life and favorable impurity profile.

Nc1nc2[nH]cc(CCc3ccc(C(=O)N[C@@H](CCC(=O)[O-])C(=O)[O-])cc3)c2c(=O)[nH]1.[K+].[K+] [Form-SP9, Pemetrexed dipotassium]
stability of the crystal form (morphology and physicochemical characteristics): very stable crystal lattice
